Results: US20050112573A1, “Method of detecting toxic substance” (priority 2001, published 2005)

Tested on: yeast genes (level of expressed mRNA)
Assay: DNA chip analysis of expressed mRNA of yeast genes after 2 h culture with a toxic chemical substance
Assay type: cell-based, Saccharomyces cerevisiae S288C
Conditions: for The level of expressed mRNA in the presence of chemical substance/ (ratio to absence of chemical substance): stress protein genes, DNA chip; for The level of expressed mRNA in the presence of chemical substance/ in its absence, gene YPR184W: yeast gene YPR184W
Procedure: Yeast (Saccharomyces cerevtisiae S288C (α SUC2mal mel gap2 CUP1)) were cultured at 25° C. on YPD medium (yeast extract 1%, polypepton 2%, glucose 2%). One of toxic chemical substances was added to the cell at logarithmic growth phase, and the cell was further cultured for two hours. Cell was cultured without any chemical substance in the same condition, and was used as control. Concentrations of the chemical substances were defined to inhibit the growth of the yeast but not lead to death.
After the completion of cultivation, the culture was centrifuged to collect the cells. To the cells, sodium acetate buffer (50 mM sodium acetate, 10 mM EDTA, 1% SDS) was added, and the mixture was shaken at 65° C. for five minutes, followed by returning to room temperature, and obtaining the supernatant, which procedure was repeated two times. To the supernatant, ½ amount of a solution of phenol/chloroform was added, and the mixture was centrifuged to give a supernatant, which was added with an equal amount of chloroform, and the mixture was centrifuged to give a supernatant. To the supernatant, an equal amount of isopropanol containing 0.3 M sodium acetate was added, and the mixture was allowed to stand at room temperature for 30 minutes, after which the mixture was centrifuged to give a sediment of the whole RNAs. Seventy % ethanol was added to the sediment, and the mixture was again centrifuged to give a sediment, which was then dried and dissolved in water. mRNA was isolated from the whole RNAs as followings. In view of the fact that a poly A chain is attached to the 3′ terminus of mRNA, a polynucleotide having a poly T structure which was immobilized on the surface of latex beads was used to trap the mRNA, and then the mRNA was washed and eluted with spine column (Oligotex-dT30<Super>mRNA Purification Kit, Takara). Reverse transcription of the mRNA was conducted with a reverse transcriptase (Super Script II Reverse Transcriptase; catalogue No. 18064-014, GibcoBRL) using fluorescence-labeled nucleotides to give cDNAs that were introduced with Cy3-dUTP or Cy5-dUTP during the reverse transcription.
The labeled cDNAs were dissolved in TE buffer (10 mM Tris-HCl/1 mM EDTA, pH8.0), and the solution was dropped on the DNA chip containing the whole genes of yeast (DNA Chip Research Inc. Japan) so that the cDNAs were hybridized on the DNA chip at 65° C. for over 12 hours. The fluoresces intensity of the DNA chip was read with a scanner, and the ratio relative to the fluorescence intensity resulting from the absence of chemical substance was estimated as the following, which is shown in Tables 1 to 9: [formula]
In the Tables, “Intensity” indicated in the rightmost column is a value of the level of expressed mRNA of each gene in control cells as divided by the average level of the expressions of the whole genes.

COc1cc(CNC(=O)CCCCC=CC(C)C)ccc1O [(12), 8-methyl-N-vanillyl-6-nonenamide]
1.5: The level of expressed mRNA in the presence of chemical substance/The level of expressed mRNA in the absence of chemical substance (yeast gene YOR185C) | The level of expressed mRNA in the presence of chemical substance/The level of expressed mRNA in the absence of chemical substance (yeast gene YOR198C) | The level of expressed mRNA in the presence of chemical substance/The level of expressed mRNA in the absence of chemical substance (yeast gene YPL154C)
0.8: The level of expressed mRNA in the presence of chemical substance/ (in its absence), gene YNL025C (yeast gene YNL025C, ratio of DNA chip fluorescence intensity to that without chemical substance) | The level of expressed mRNA in the presence of chemical substance/ (ratio to absence of chemical substance) (yeast gene YNL064C) | The level of expressed mRNA in the presence of chemical substance/The level of expressed mRNA in the absence of chemical substance (yeast gene YNR010W) | The level of expressed mRNA in the presence of chemical substance/ (in its absence), gene YOR180C (yeast gene YOR180C, ratio of DNA chip fluorescence intensity to that without chemical substance) | The level of expressed mRNA in the presence of chemical substance/The level of expressed mRNA in the absence of chemical substance (yeast gene YOR181W) | The level of expressed mRNA in the presence of chemical substance/The level of expressed mRNA in the absence of chemical substance (yeast gene YOR259C) | The level of expressed mRNA in the presence of chemical substance/ (ratio to absence of chemical substance) (yeast gene YPL059W) | The level of expressed mRNA in the presence of chemical substance/ (ratio to absence), gene YPL134C (yeast gene YPL134C, mitochondria-located protein genes, 2 h culture with chemical) | The level of expressed mRNA in the presence of chemical substance/ (ratio to absence of chemical substance) (yeast gene YPL140C) | The level of expressed mRNA in the presence of chemical substance/ (in its absence), gene YPR165W (yeast gene YPR165W, ratio of DNA chip fluorescence intensity to that without chemical substance)
0.5: The level of expressed mRNA in the presence of chemical substance/ (ratio to absence of chemical substance) (yeast gene YOR010C)
1.0: The level of expressed mRNA in the presence of chemical substance/The level of expressed mRNA in the absence of chemical substance (yeast gene YMR314W) | The level of expressed mRNA in the presence of chemical substance/The level of expressed mRNA in the absence of chemical substance (yeast gene YNL333W) | The level of expressed mRNA in the presence of chemical substance/ (in its absence), gene YNR072W (yeast gene YNR072W, ratio of DNA chip fluorescence intensity to that without chemical substance) | The level of expressed mRNA in the presence of chemical substance/ (in its absence), gene YOL108C (yeast gene YOL108C, ratio of DNA chip fluorescence intensity to that without chemical substance) | The level of expressed mRNA in the presence of chemical substance/The level of expressed mRNA in the absence of chemical substance (yeast gene YPR108W)
0.6: The level of expressed mRNA in the presence of chemical substance/ (in its absence), gene YOL116W (yeast gene YOL116W, ratio of DNA chip fluorescence intensity to that without chemical substance) | The level of expressed mRNA in the presence of chemical substance/ (ratio to absence of chemical substance) (yeast gene YPR005C)
0.9: The level of expressed mRNA in the presence of chemical substance/The level of expressed mRNA in the absence of chemical substance (yeast gene YOR124C) | The level of expressed mRNA in the presence of chemical substance/ (in its absence), gene YOR251C (yeast gene YOR251C, ratio of DNA chip fluorescence intensity to that without chemical substance) | The level of expressed mRNA in the presence of chemical substance/The level of expressed mRNA in the absence of chemical substance (yeast gene YOR261C) | The level of expressed mRNA in the presence of chemical substance/The level of expressed mRNA in the absence of chemical substance (yeast gene YOR355W) | The level of expressed mRNA in the presence of chemical substance/ (in its absence), gene YOR363C (yeast gene YOR363C, ratio of DNA chip fluorescence intensity to that without chemical substance) | The level of expressed mRNA in the presence of chemical substance/ (ratio to absence), gene YPL040C (yeast gene YPL040C, mitochondria-located protein genes, 2 h culture with chemical) | The level of expressed mRNA in the presence of chemical substance/The level of expressed mRNA in the absence of chemical substance (yeast gene YPL109C) | The level of expressed mRNA in the presence of chemical substance/The level of expressed mRNA in the absence of chemical substance (yeast gene YPL149W) | The level of expressed mRNA in the presence of chemical substance/ (ratio to absence of chemical substance) (yeast gene YPL194W)
2.5: The level of expressed mRNA in the presence of chemical substance/The level of expressed mRNA in the absence of chemical substance (yeast gene YOR117W)
1.4: The level of expressed mRNA in the presence of chemical substance/The level of expressed mRNA in the absence of chemical substance (yeast gene YOR288C) | The level of expressed mRNA in the presence of chemical substance/ in its absence, gene YPR184W (energy system protein genes, 2 h culture with the chemical, ratio to control without chemical) | The level of expressed mRNA in the presence of chemical substance/ in its absence, gene YPR184W (ratio of DNA chip fluorescence intensity to that without chemical substance)
0.4: The level of expressed mRNA in the presence of chemical substance/ (ratio to absence of chemical substance) (yeast gene YOR009W)
1.3: The level of expressed mRNA in the presence of chemical substance/ (ratio to absence of chemical substance) (yeast gene YOL161C) | The level of expressed mRNA in the presence of chemical substance/The level of expressed mRNA in the absence of chemical substance (yeast gene YOR157C)
1.2: The level of expressed mRNA in the presence of chemical substance/The level of expressed mRNA in the absence of chemical substance (yeast gene YNR069C) | The level of expressed mRNA in the presence of chemical substance/ (ratio to absence), gene YOL096C (yeast gene YOL096C, mitochondria-located protein genes, 2 h culture with chemical) | The level of expressed mRNA in the presence of chemical substance/ (in its absence), gene YOL096C (yeast gene YOL096C, ratio of DNA chip fluorescence intensity to that without chemical substance) | The level of expressed mRNA in the presence of chemical substance/The level of expressed mRNA in the absence of chemical substance (yeast gene YOR036W) | The level of expressed mRNA in the presence of chemical substance/ (in its absence), gene YOR103C (yeast gene YOR103C, ratio of DNA chip fluorescence intensity to that without chemical substance) | The level of expressed mRNA in the presence of chemical substance/The level of expressed mRNA in the absence of chemical substance (yeast gene YPR103W)
1.1: The level of expressed mRNA in the presence of chemical substance/The level of expressed mRNA in the absence of chemical substance (yeast gene YNL093W) | The level of expressed mRNA in the presence of chemical substance/ (in its absence), gene YNL192W (yeast gene YNL192W, ratio of DNA chip fluorescence intensity to that without chemical substance) | The level of expressed mRNA in the presence of chemical substance/The level of expressed mRNA in the absence of chemical substance (yeast gene YOL013C) | The level of expressed mRNA in the presence of chemical substance/The level of expressed mRNA in the absence of chemical substance (yeast gene YOL164W) | The level of expressed mRNA in the presence of chemical substance/ (ratio to absence), gene YOR316C (yeast gene YOR316C, mitochondria-located protein genes, 2 h culture with chemical) | The level of expressed mRNA in the presence of chemical substance/The level of expressed mRNA in the absence of chemical substance (yeast gene YOR383C)
0.7: The level of expressed mRNA in the presence of chemical substance/The level of expressed mRNA in the absence of chemical substance (yeast gene YNL006W) | The level of expressed mRNA in the presence of chemical substance/The level of expressed mRNA in the absence of chemical substance (yeast gene YNL007C) | The level of expressed mRNA in the presence of chemical substance/ (ratio to absence), gene YNL073W (yeast gene YNL073W, mitochondria-located protein genes, 2 h culture with chemical) | The level of expressed mRNA in the presence of chemical substance/ (ratio to absence of chemical substance) (yeast gene YNR076W) | The level of expressed mRNA in the presence of chemical substance/ (ratio to absence of chemical substance) (yeast gene YOR008C) | The level of expressed mRNA in the presence of chemical substance/The level of expressed mRNA in the absence of chemical substance (yeast gene YOR132W) | The level of expressed mRNA in the presence of chemical substance/ (in its absence), gene YOR348C (yeast gene YOR348C, ratio of DNA chip fluorescence intensity to that without chemical substance) | The level of expressed mRNA in the presence of chemical substance/The level of expressed mRNA in the absence of chemical substance (yeast gene YPL089C) | The level of expressed mRNA in the presence of chemical substance/ (in its absence), gene YPL148C (yeast gene YPL148C, ratio of DNA chip fluorescence intensity to that without chemical substance)
